Laboratory results taken from patent publication US8481750B2 (Boehringer Ingelheim International GmbH, priority 2009, dated 2013).

Molecular target: LFA-1 binding to ICAM-1 (Homo sapiens, UniProt P05107+P20701)
Experiment: Inhibition of LFA-1 binding to ICAM-1 (LFA-1/Biotin-sICAM-1 AlphaScreen molecular assay)
Settings: highest compound concentration 1 μM in 1% DMSO, 37° C., 90 minutes
Source text: Assay to Determine Inhibition of LFA-1 Binding to ICAM-1
This assay protocol is designed to study the direct antagonism, by a test compound, of the interaction of ICAM-1 with the Leukointegrin CD18/CD11a (LFA-1).
The LFA-1/Biotin-sICAM-1 molecular assay measures the ability of test compounds to inhibit binding of LFA-1 to Biotinylated-sICAM using AlphaScreen technology (Ref: Wilson, J, Rossi, C P, Carboni, S, Fremaux, C, Perrin, D, Soto, C, Kosco-Vilbois, M, and Scheer, A: A Homogeneous 384-Well High-Throughput Binding Assay for a TNF Receptor Using Alphascreen Technology. J Biomol Screen 2003; 8:522-532) that uses TS2/4(anti-LFA-1)-custom conjugated AlphaLisa acceptor beads and streptavidin-coated donor beads from PerkinElmer. The assay was performed in white OptiPlates-384 in a volume of 60 μL using assay buffer (Dulbecco's PBS containing calcium and magnesium, 2 mM MgCl2, 0.1 mM PMSF, 0.1% BSA, pH 7.1). To each well, Biotin-sICAM was added followed by purified LFA-1 (in buffer of 50 mM triethylamine, 150 mM NaCl, 1% beta octylglucoside, 2 mM MgCl2 neutralized to pH with 1M Tris-HCl, pH 7.5). For compound testing, compound was added in 5 uL to the above in 25 uL. LFA-1 and Biotin-sICAM-1 were used at concentrations that would yield a signal to background ratio of 8-10. The highest concentration of compound was 1 μM in 1% DMSO. Positive controls were wells without compound containing LFA-1, while blanks were wells without both compound and LFA-1. Plates were mixed and incubated at 37° C. for 90 minutes. This was followed by addition of 15 μL/well TS2/4-congugated acceptor beads diluted in PBS containing 0.1% BSA for a final concentration of 10 μg/mL. The plates were mixed and incubated in the dark for 30 minutes at room temperature followed by addition of 15 μL/well streptavidin-coated donor beads diluted in PBS containing 0.1% BSA at a final concentration of 15 μg/mL. The plates were mixed and incubated in the dark for 60 minutes at room temperature and then read on an EnVision Multilabel Reader using AlphaScreen 384-well OptiPlate protocol.

Sequence of LFA-1 binding to ICAM-1 (P20701 26-1170): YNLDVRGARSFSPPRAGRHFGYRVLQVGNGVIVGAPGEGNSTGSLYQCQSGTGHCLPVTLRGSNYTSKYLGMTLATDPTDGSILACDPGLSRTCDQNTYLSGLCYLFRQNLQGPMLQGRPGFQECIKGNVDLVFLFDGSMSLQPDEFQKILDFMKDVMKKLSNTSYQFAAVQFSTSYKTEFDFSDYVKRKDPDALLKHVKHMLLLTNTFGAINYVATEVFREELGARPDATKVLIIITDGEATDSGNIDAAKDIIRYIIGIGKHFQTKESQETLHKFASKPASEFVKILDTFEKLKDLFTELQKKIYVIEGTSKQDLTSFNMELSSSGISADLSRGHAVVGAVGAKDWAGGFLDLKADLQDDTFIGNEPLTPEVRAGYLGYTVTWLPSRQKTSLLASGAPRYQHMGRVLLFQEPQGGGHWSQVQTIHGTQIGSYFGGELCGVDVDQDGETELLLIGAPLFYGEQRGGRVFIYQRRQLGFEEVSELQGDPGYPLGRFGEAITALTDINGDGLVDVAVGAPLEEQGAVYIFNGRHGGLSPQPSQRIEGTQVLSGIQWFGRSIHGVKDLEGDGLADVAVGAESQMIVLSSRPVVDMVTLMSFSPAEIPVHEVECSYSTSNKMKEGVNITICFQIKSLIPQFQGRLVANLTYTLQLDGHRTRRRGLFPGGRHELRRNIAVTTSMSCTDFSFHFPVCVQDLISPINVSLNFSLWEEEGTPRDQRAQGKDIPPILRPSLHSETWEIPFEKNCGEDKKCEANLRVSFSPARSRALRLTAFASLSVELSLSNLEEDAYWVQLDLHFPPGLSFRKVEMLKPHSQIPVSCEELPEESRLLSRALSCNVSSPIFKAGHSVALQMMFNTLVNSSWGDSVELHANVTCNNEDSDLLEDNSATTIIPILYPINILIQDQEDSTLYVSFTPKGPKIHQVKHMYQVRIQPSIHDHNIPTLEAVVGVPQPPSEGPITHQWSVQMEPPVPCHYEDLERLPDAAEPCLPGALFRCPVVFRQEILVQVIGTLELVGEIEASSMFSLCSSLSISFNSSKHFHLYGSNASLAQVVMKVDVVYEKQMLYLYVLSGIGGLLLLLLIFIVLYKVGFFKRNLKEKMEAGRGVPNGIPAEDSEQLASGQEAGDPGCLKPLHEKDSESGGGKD
Sequence of LFA-1 binding to ICAM-1 (P05107 23-769): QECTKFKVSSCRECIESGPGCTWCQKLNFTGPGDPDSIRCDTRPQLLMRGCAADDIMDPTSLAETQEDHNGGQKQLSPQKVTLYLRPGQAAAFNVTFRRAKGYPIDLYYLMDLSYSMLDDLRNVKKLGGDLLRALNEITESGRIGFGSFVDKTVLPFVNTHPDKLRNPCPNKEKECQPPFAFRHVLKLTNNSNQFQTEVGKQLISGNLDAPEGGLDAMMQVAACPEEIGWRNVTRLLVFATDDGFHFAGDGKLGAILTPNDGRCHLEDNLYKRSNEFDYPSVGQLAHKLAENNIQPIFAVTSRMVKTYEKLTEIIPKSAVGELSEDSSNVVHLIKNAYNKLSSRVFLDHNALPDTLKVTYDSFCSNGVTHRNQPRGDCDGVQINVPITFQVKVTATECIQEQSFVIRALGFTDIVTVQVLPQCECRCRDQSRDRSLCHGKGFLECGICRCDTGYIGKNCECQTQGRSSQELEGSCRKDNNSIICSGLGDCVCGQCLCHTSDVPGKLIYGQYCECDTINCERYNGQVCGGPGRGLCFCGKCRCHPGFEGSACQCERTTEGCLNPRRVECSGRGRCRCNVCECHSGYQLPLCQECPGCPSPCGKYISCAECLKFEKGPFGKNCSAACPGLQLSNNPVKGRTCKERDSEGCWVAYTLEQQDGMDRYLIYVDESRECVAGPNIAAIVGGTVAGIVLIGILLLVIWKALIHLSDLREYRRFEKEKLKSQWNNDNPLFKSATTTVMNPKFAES

Structure (SMILES)	IC50 [nM]
C[C@@H](NC(=O)c1ccnc(C2(NC(=O)C3(NC(=O)c4cnc5n4[C@](C)(Cc4ccc(C#N)cc4)C(=O)N5c4cc(Cl)cc(Cl)c4)CC3)CC2)c1)c1ccccc1 [compound 53]	2.4
C[C@@]1(Cc2ccc(C#N)cc2)C(=O)N(c2cc(Cl)cc(Cl)c2)c2ncc(C(=O)NC3(C(=O)NC4(c5ccc(C(=O)N6CCC[C@H]6C(N)=O)cn5)CC4)CC3)n21 [compound 8]	1.6
C[C@@]1(Cc2ccc(C#N)cc2)C(=O)N(c2cc(Cl)cc(Cl)c2)c2ncc(C(=O)NC3(C(=O)NC4(c5cc(C(=O)NCc6ccncc6)ccn5)CC4)CC3)n21 [compound 64]	0.34
C[C@@H](CO)NC(=O)c1ccc(C2(NC(=O)C3(NC(=O)c4cnc5n4[C@](C)(Cc4ccc(C#N)cc4)C(=O)N5c4cc(Cl)cc(Cl)c4)CC3)CC2)nc1 [compound 91]	0.81
CNC(=O)c1ccnc(C2(NC(=O)C3(NC(=O)c4cnc5n4[C@](C)(Cc4ccc(C#N)cc4)C(=O)N5c4cc(Cl)cc(Cl)c4)CC3)CC2)c1 [compound 31]	0.67
C[C@@]1(Cc2ccc(C#N)cc2)C(=O)N(c2cc(Cl)cc(Cl)c2)c2ncc(C(=O)NC3(C(=O)NC4(c5cc(C(=O)NC6CCC6)ccn5)CC4)CC3)n21 [compound 114]	0.84
CC(C)(O)CNC(=O)c1ccc(C2(NC(=O)C3(NC(=O)c4cnc5n4[C@](C)(Cc4ccc(C#N)cc4)C(=O)N5c4cc(Cl)cc(Cl)c4)CC3)CC2)nc1 [compound 117]	0.37
C[C@@]1(Cc2ccc(C#N)cc2)C(=O)N(c2cc(Cl)cc(Cl)c2)c2ncc(C(=O)NC3(C(=O)NC4(c5cc(C(=O)N6CCC[C@@H]6C(N)=O)ccn5)CC4)CC3)n21 [compound 115]	0.33
C[C@@]1(Cc2ccc(C#N)cc2)C(=O)N(c2cc(Cl)cc(Cl)c2)c2ncc(C(=O)NC3(C(=O)NC4(c5ccc(C(=O)NCCc6ccccn6)cn5)CC4)CC3)n21 [compound 93]	0.62
C[C@@]1(Cc2ccc(C#N)cc2)C(=O)N(c2cc(Cl)cc(Cl)c2)c2ncc(C(=O)NC3(C(=O)NC4(c5cc(C(=O)N6CCCCC6CO)ccn5)CC4)CC3)n21 (some centres unmarked) [compound 44]	0.88
C[C@@]1(Cc2ccc(C#N)cc2)C(=O)N(c2cc(Cl)cc(Cl)c2)c2ncc(C(=O)NC3(C(=O)NC4(c5cc(C(=O)N6CC[C@@H](O)C6)ccn5)CC4)CC3)n21 [compound 168]	3.4
C[C@@]1(Cc2ccc(C#N)cc2)C(=O)N(c2cc(Cl)cc(Cl)c2)c2ncc(C(=O)NC3(C(=O)NC4(c5cccc(C(=O)N6CCCC(C(N)=O)C6)n5)CC4)CC3)n21 (some centres unmarked) [compound 23]	2.6
CC(=O)N1CCN(C(=O)c2ccnc(C3(NC(=O)C4(NC(=O)c5cnc6n5[C@](C)(Cc5ccc(C#N)cc5)C(=O)N6c5cc(Cl)cc(Cl)c5)CC4)CC3)c2)CC1 [compound 113]	1.3
C[C@@]1(Cc2ccc(C#N)cc2)C(=O)N(c2cc(Cl)cc(Cl)c2)c2ncc(C(=O)NC3(C(=O)NC4(c5cc(C(=O)NCCc6ccccn6)ccn5)CC4)CC3)n21 [compound 6]	0.82
C[C@@]1(Cc2ccc(C#N)cc2)C(=O)N(c2cc(Cl)cc(Cl)c2)c2ncc(C(=O)NC3(C(=O)NC4(c5cccc(C(=O)N6CC[C@H](O)C6)n5)CC4)CC3)n21 [compound 143]	0.53
CN(C)C1CCN(C(=O)c2cccc(C3(NC(=O)C4(NC(=O)c5cnc6n5[C@](C)(Cc5ccc(C#N)cc5)C(=O)N6c5cc(Cl)cc(Cl)c5)CC4)CC3)n2)C1 (some centres unmarked) [compound 111]	2.5
CC(=O)N(C)C1CCN(C(=O)c2cccc(C3(NC(=O)C4(NC(=O)c5cnc6n5[C@](C)(Cc5ccc(C#N)cc5)C(=O)N6c5cc(Cl)cc(Cl)c5)CC4)CC3)n2)C1 (some centres unmarked) [compound 45]	4.5
CN(C)CCNC(=O)c1cccc(C2(NC(=O)C3(NC(=O)c4cnc5n4[C@](C)(Cc4ccc(C#N)cc4)C(=O)N5c4cc(Cl)cc(Cl)c4)CC3)CC2)n1 [compound 63]	1.7
COCCNC(=O)c1cccc(C2(NC(=O)C3(NC(=O)c4cnc5n4[C@](C)(Cc4ccc(C#N)cc4)C(=O)N5c4cc(Cl)cc(Cl)c4)CC3)CC2)n1 [compound 75]	2.2
C[C@@]1(Cc2ccc(C#N)cc2)C(=O)N(c2cc(Cl)cc(Cl)c2)c2ncc(C(=O)NC3(C(=O)NC4(c5cccc(C(=O)N6CCC6)n5)CC4)CC3)n21 [compound 104]	2.3
C[C@@]1(Cc2ccc(C#N)cc2)C(=O)N(c2cc(Cl)cc(Cl)c2)c2ncc(C(=O)NC3(C(=O)NC4(c5ccc(C(=O)NCc6ccncc6)cn5)CC4)CC3)n21 [compound 50]	0.97

Structure (SMILES)	IC50 [nM]
CC(NC(=O)c1ccc(C2(NC(=O)C3(NC(=O)c4cnc5n4[C@](C)(Cc4ccc(C#N)cc4)C(=O)N5c4cc(Cl)cc(Cl)c4)CC3)CC2)nc1)c1ccccn1 (some centres unmarked) [compound 160]	0.37
C[C@@]1(Cc2ccc(C#N)cc2)C(=O)N(c2cc(Cl)cc(Cl)c2)c2ncc(C(=O)NC3(C(=O)NC4(c5cc(C(=O)N6CCCC6)ccn5)CC4)CC3)n21 [compound 135]	0.79
CC(C)(CO)NC(=O)c1ccnc(C2(NC(=O)C3(NC(=O)c4cnc5n4[C@](C)(Cc4ccc(C#N)cc4)C(=O)N5c4cc(Cl)cc(Cl)c4)CC3)CC2)c1 [compound 105]	0.65
CN(C)C1CCN(C(=O)c2ccc(C3(NC(=O)C4(NC(=O)c5cnc6n5[C@](C)(Cc5ccc(C#N)cc5)C(=O)N6c5cc(Cl)cc(Cl)c5)CC4)CC3)nc2)C1 (some centres unmarked) [compound 61]	1.8
C[C@@]1(Cc2ccc(C#N)cc2)C(=O)N(c2cc(Cl)cc(Cl)c2)c2ncc(C(=O)NC3(C(=O)NC4(c5cc(C(=O)N6CCOCC6)ccn5)CC4)CC3)n21 [compound 58]	0.7
C[C@@]1(Cc2ccc(C#N)cc2)C(=O)N(c2cc(Cl)cc(Cl)c2)c2ncc(C(=O)NC3(C(=O)NC4(c5ccc(C(N)=O)cn5)CC4)CC3)n21 [compound 148]	1.4
CN(C)C(=O)c1ccc(C2(NC(=O)C3(NC(=O)c4cnc5n4[C@](C)(Cc4ccc(C#N)cc4)C(=O)N5c4cc(Cl)cc(Cl)c4)CC3)CC2)nc1 [compound 124]	2.1
C[C@@]1(Cc2ccc(C#N)cc2)C(=O)N(c2cc(Cl)cc(Cl)c2)c2ncc(C(=O)NC3(C(=O)NC4(c5ccc(C(=O)N6CCCC(C(N)=O)C6)cn5)CC4)CC3)n21 (some centres unmarked) [compound 101]	0.42
C[C@@]1(Cc2ccc(C#N)cc2)C(=O)N(c2cc(Cl)cc(Cl)c2)c2ncc(C(=O)NC3(C(=O)NC4(c5cc(C(=O)N6CCC(CO)CC6)ccn5)CC4)CC3)n21 [compound 7]	1.4
C[C@@]1(Cc2ccc(C#N)cc2)C(=O)N(c2cc(Cl)cc(Cl)c2)c2ncc(C(=O)NC3(C(=O)NC4(c5cccc(C(=O)N6CCNCC6)n5)CC4)CC3)n21 [compound 39]	3.6
COCCNC(=O)c1ccc(C2(NC(=O)C3(NC(=O)c4cnc5n4[C@](C)(Cc4ccc(C#N)cc4)C(=O)N5c4cc(Cl)cc(Cl)c4)CC3)CC2)nc1 [compound 41]	0.14
C[C@@]1(Cc2ccc(C#N)cc2)C(=O)N(c2cc(Cl)cc(Cl)c2)c2ncc(C(=O)NC3(C(=O)NC4(c5cc(C(=O)NCCO)ccn5)CC4)CC3)n21 [compound 4]	0.92
CC(NC(=O)c1ccnc(C2(NC(=O)C3(NC(=O)c4cnc5n4[C@](C)(Cc4ccc(C#N)cc4)C(=O)N5c4cc(Cl)cc(Cl)c4)CC3)CC2)c1)c1cccnc1 (some centres unmarked) [compound 139]	0.99
C[C@@H](NC(=O)c1ccnc(C2(NC(=O)C3(NC(=O)c4cnc5n4[C@](C)(Cc4ccc(C#N)cc4)C(=O)N5c4cc(Cl)cc(Cl)c4)CC3)CC2)c1)C(N)=O [compound 166]	3
C[C@@H](NC(=O)c1cccc(C2(NC(=O)C3(NC(=O)c4cnc5n4[C@](C)(Cc4ccc(C#N)cc4)C(=O)N5c4cc(Cl)cc(Cl)c4)CC3)CC2)n1)c1ccccc1 [compound 118]	33
C[C@@]1(Cc2ccc(C#N)cc2)C(=O)N(c2cc(Cl)cc(Cl)c2)c2ncc(C(=O)NC3(C(=O)NC4(c5cccc(C(=O)NC6CC6)n5)CC4)CC3)n21 [compound 123]	0.34
C[C@@]1(Cc2ccc(C#N)cc2)C(=O)N(c2cc(Cl)cc(Cl)c2)c2ncc(C(=O)NC3(C(=O)NC4(c5ccc(C(=O)N6CCCCC6CO)cn5)CC4)CC3)n21 (some centres unmarked) [compound 137]	0.68
C[C@@]1(Cc2ccc(C#N)cc2)C(=O)N(c2cc(Cl)cc(Cl)c2)c2ncc(C(=O)NC3(C(=O)NC4(c5cccc(C(=O)N6CC[C@@H](O)C6)n5)CC4)CC3)n21 [compound 48]	2.4
C[C@@]1(Cc2ccc(C#N)cc2)C(=O)N(c2cc(Cl)cc(Cl)c2)c2ncc(C(=O)NC3(C(=O)NC4(c5cccc(C(=O)N6CCCCC6CO)n5)CC4)CC3)n21 (some centres unmarked) [compound 125]	0.28
C[C@@]1(Cc2ccc(C#N)cc2)C(=O)N(c2cc(Cl)cc(Cl)c2)c2ncc(C(=O)NC3(C(=O)NC4(c5cccc(C(=O)N6CCCCC6)n5)CC4)CC3)n21 [compound 16]	12
